The record followed here is the NIST ThermoML archive (doi:10.1016/j.fluid.2012.06.020).

Numbers after ± are expanded uncertainties.

By mass density is commonly meant the mass of a sample divided by its volume. For orientation: refractive index means the speed of light in vacuum divided by its phase velocity in the sample.

For series [1] the following is noted: Liquid; for mass density: 293.15 K, 101.33 kPa, Pycnometric method; for Normal boiling temperature: Fischer Boiling Apparatus.
The nature of series [2]: refractive index (Na D-line) (dimensionless). Particulars: 293.15 K; 101.33 kPa; Liquid; Standard Abbe refractometry.

On to `CCCCCCCCCCCO` [1-undecanol], for which, in series [1], the mass density is reported as 829.2 ± 0.74 kg/m3 and the Normal boiling temperature came to 245.1 ± 1 °C. The refractive index in series [2] is on record as 1.4402 ± 0.0005.

For `CC(=O)O` [acetic acid], in series [1], the mass density is 1044.3 ± 0.47 kg/m3 and the Normal boiling temperature came to 117.80 ± 1 °C. The refractive index in series [2] was determined as 1.371 ± 0.0004.

Turning to `O=CO` [formic acid], in series [1], the mass density is listed as 1218.5 ± 1.5 kg/m3 and the Normal boiling temperature was 101.1 ± 1 °C. The refractive index in series [2] is recorded as 1.3721 ± 0.0005.

Turning to `CCCCC(=O)O` [pentanoic acid], in series [1], the mass density was determined as 932.5 ± 0.4 kg/m3 and the Normal boiling temperature is 186.00 ± 1 °C. In addition, in series [2], the refractive index is listed as 1.4088 ± 0.0004.

On to `CCC(=O)O` [propanoic acid], for which, in series [1], the mass density was determined as 988.1 ± 0.43 kg/m3 and the Normal boiling temperature worked out at 141.1 ± 1 °C. Besides, in series [2], the refractive index is reported as 1.3808 ± 0.0004.

For `O` [water], in series [1], the mass density is on record as 999.9 ± 0.26 kg/m3 and the Normal boiling temperature was determined as 100.1 ± 1 °C. Besides, the refractive index in series [2] turned out to be 1.3324 ± 0.0003.
